In patent publication US8987312B2, “Alpha-keto heterocycles as FAAH inhibitors” (The Scripps Research Institute, priority 2008, dated 2015):
pIC50, pKi: −log10 of the molar value. Read-outs that look alike come from different tables or passages of the source.

What was measured:
Type in all cases: biochemical
[1] = target: T1, purified recombinant rat FAAH (Rattus norvegicus, UniProt P97612); assay: FAAH inhibition enzyme assay (14C-oleamide hydrolysis, Dixon plot), rat enzyme
T1 construct: The truncated rat FAAH (rFAAH) was expressed in E. coli and purified as described; made in house; host or cells: Escherichia coli
T1 sequence (P97612 30-579 limits assumed): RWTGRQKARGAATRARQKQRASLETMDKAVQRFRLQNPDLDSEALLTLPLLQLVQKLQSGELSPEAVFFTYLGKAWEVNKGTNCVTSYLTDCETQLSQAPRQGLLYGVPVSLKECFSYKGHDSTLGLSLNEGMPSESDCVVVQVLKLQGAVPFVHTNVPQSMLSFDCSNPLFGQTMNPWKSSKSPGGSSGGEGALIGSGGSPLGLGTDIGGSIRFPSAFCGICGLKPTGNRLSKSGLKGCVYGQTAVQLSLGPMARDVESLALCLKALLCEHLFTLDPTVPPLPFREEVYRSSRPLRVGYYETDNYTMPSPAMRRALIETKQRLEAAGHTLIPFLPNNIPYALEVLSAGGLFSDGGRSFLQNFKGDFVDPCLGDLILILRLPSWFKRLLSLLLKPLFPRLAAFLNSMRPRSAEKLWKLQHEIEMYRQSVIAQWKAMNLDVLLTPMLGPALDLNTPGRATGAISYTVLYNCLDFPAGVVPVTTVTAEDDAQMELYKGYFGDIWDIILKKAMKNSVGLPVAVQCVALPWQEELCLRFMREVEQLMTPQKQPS
From the text: The purified recombinant rFAAH was used in the inhibition assays unless otherwise indicated.
The ^14C-labeled oleamide (substrate) and oleic acid (product) were extracted with EtOAc and analyzed by TLC.

FAAH = target: T2, FAAH (Mus musculus, UniProt O08914); assay: Activity based protein profiling (proteome-wide selectivity screening, FP-Rh), FAAH; conditions: Table 4
T2 construct: with FP-Rh in brain and heart membrane proteome; from tissue; host or cells: brain and heart membrane proteome
T2 sequence (O08914 1-579): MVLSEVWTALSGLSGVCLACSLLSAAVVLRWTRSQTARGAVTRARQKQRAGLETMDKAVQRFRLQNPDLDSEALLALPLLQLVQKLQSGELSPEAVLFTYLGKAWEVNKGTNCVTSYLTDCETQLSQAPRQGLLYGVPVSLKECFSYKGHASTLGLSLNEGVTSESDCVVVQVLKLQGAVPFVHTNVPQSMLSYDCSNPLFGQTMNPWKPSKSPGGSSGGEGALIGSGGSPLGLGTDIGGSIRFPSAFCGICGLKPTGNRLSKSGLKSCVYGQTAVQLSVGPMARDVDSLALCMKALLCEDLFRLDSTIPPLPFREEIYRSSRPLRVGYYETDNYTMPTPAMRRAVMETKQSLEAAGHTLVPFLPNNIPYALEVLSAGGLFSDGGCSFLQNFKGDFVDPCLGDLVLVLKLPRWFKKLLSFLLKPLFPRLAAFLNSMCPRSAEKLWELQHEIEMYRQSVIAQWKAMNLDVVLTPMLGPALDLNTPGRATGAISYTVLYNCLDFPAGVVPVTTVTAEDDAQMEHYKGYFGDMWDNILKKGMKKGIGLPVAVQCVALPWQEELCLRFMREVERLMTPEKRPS
From the text: (§1) Enzyme targets such as FAAH, KIAA1363, and TGH are labeled at the left margin.

KIAA1363 = target: T3, KIAA1363 (Mus musculus, UniProt Q8BLF1); assay: Activity based protein profiling (proteome-wide selectivity screening, FP-Rh), KIAA1363; conditions: Table 4; for pIC50: activity based protein profiling; for KIAA1363 selectivity (value in parentheses): ratio KIAA1363 IC50 / FAAH IC50 (fold selectivity for FAAH)
T3 construct: with FP-Rh in brain and heart membrane proteome; from tissue; host or cells: brain and heart membrane proteome
T3 sequence (Q8BLF1 1-408): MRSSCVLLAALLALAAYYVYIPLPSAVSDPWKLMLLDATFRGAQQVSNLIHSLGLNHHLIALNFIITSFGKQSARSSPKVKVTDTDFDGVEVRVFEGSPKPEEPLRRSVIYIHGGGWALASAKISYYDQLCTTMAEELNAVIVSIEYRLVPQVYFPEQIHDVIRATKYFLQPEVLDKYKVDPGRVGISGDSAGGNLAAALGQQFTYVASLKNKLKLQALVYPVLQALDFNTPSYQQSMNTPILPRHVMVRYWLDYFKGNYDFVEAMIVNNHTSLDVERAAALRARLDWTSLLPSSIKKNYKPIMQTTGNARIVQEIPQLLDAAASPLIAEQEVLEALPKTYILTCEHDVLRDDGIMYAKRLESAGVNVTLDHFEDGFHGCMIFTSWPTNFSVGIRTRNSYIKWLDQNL
From the text: as §1

[2] = target: T4, triacylglycerol hydrolase (TGH) (Mus musculus, UniProt Q8VCT4); assay: Activity based protein profiling (proteome-wide selectivity screening, FP-Rh), TGH; conditions: Table 4; for pIC50: activity based protein profiling; for TGH selectivity (value in parentheses): ratio TGH IC50 / FAAH IC50 (fold selectivity for FAAH)
T4 construct: with FP-Rh in brain and heart membrane proteome; from tissue; host or cells: brain and heart membrane proteome
T4 sequence (Q8VCT4 19-565): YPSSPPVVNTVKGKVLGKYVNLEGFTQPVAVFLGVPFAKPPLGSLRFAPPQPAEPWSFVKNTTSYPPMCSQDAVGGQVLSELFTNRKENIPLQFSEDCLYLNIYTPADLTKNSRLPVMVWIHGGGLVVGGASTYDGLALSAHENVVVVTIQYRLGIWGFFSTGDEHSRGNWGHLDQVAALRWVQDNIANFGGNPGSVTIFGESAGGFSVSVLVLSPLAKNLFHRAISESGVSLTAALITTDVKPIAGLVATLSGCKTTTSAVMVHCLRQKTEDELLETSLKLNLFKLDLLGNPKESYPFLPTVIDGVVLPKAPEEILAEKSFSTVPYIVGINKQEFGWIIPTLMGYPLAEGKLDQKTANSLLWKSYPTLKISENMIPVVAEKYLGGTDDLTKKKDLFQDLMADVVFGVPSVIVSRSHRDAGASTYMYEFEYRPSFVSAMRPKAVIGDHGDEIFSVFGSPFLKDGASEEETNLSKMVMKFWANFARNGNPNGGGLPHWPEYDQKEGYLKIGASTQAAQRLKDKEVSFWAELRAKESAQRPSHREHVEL
From the text: as §1

[3] = Table 2, rat FAAH, pH 9 assay conditions, read-out: Ki

pKi [1, 3]	pKi ([1]; Table 4, read-out: FAAH Ki)	pIC50 (FAAH)	pIC50 (KIAA1363)	KIAA1363 selectivity (value in parentheses) (KIAA1363)	pIC50 [2]	TGH selectivity (value in parentheses) [2]	pKi ([1]; rat FAAH, pH 9, read-out: Ki)	SMILES
7.92	7.92	7.10	< 4.00	> 1250	6.52	4		O=C(CCCCCCc1ccccc1)c1ncc(-c2ccco2)o1 [7c]
7.26	7.26	6.10	< 4.00	> 125	6.70	0.25		O=C(CCCCCCc1ccccc1)c1ncc(-c2cccs2)o1 [7d]
		6.05	< 4.00		6.15			O=C(CCCCCCc1ccccc1)c1ncc(-c2ccccc2)o1 [7e]
		6.77	4.40		6.00			COC(=O)c1cccc(-c2cnc(C(=O)CCCCCCc3ccccc3)o2)n1 [7f]
9.00	9.00	7.80	< 4.00	> 6250	7.60	1.5		O=C(CCCCCCc1ccccc1)c1nnco1 [8a, 1-(1,3,4-Oxadiazol-2-yl)-7-phenylheptan-1-one]
9.25						80		O=C(CCCCCCc1ccccc1)c1nnc(-c2ccco2)o1 [8c]
8.66	8.66			> 4000		10		O=C(CCCCCCc1ccccc1)c1nnc(-c2ccccc2)o1 [8e]
8.52	8.52	8.10	< 4.00	> 12500	7.40	5		COC(=O)c1cccc(-c2nnc(C(=O)CCCCCCc3ccccc3)o2)n1 [8f, Methyl 6-(5-(7-Phenylheptanoyl)-1,3,4-oxadiazol-2-yl)-picolinate]
			< 4.00		5.70			COC(=O)c1nnc(C(=O)CCCCCCc2ccccc2)o1 [8h, Methyl 5-(7-Phenylheptanoyl)-1,3,4-oxadiazole-2-carboxylate]
9.00	9.00	8.40	4.60	6250	9.15	0.18		O=C(CCCCCCc1ccccc1)c1ncno1 [9a, 1-(1,2,4-Oxadiazol-5-yl)-7-phenylheptan-1-one]
8.52	8.52	8.52	4.40	13000	6.82	50		COC(=O)c1cccc(-c2noc(C(=O)CCCCCCc3ccccc3)n2)n1 [9f, Methyl 6-(5-(7-Phenylheptanoyl)-1,2,4-oxadiazol-3-yl)-picolinate]
			< 4.00		4.40			O=C(O)c1cccc(-c2noc(C(=O)CCCCCCc3ccccc3)n2)n1 [9g, 6-(5-(7-Phenylheptanoyl)-1,2,4-oxadiazol-3-yl)-picolinic Acid]
8.15	8.15	6.30	< 4.00	> 200	8.00	0.02		O=C(CCCCCCc1ccccc1)c1ncon1 [10a, 1-(1,2,4-Oxadiazol-3-yl)-7-phenylheptan-1-one]
			< 4.00					COC(=O)c1cccc(-c2nc(C(=O)CCCCCCc3ccccc3)no2)n1 [10f, Methyl 6-(3-(7-Phenylheptanoyl)-1,2,4-oxadiazol-5-yl)-picolinate]
	8.15	8.00	< 4.00	> 10000	6.70	20	> 8.00	COC(=O)c1nc(C(=O)CCCCCCc2ccccc2)no1 [10h, Methyl 3-(7-Phenylheptanoyl)-1,2,4-oxadiazole-5-carboxylate]
6.10	6.10	< 4.00	< 4.00					O=C(CCCCCCc1ccccc1)c1nccs1 [11a, 7-Phenyl-1-(thiazol-2-yl)-heptan-1-one]
			< 4.00		5.10			O=C(CCCCCCc1ccccc1)c1ncc(-c2ccccn2)s1 [11b, 7-Phenyl-1-(5-(pyridin-2-yl)-thiazol-2-yl)-heptan-1-one]
6.30	6.30	< 4.00	< 4.00		4.40	< 0.4		COC(=O)c1cccc(-c2cnc(C(=O)CCCCCCc3ccccc3)s2)n1 [11f, Methyl 6-(2-(7-Phenylheptanoyl)-thiazol-5-yl)-picolinate]
			< 4.00		4.52			O=C(O)c1cccc(-c2cnc(C(=O)CCCCCCc3ccccc3)s2)n1 [11g, 6-(2-(7-Phenylheptanoyl)thiazol-5-yl)-picolinic Acid]
8.85	8.85	6.52	< 4.00	> 330	7.00			O=C(CCCCCCc1ccccc1)c1nncs1 [12a, 7-Phenyl-1-(1,3,4-thiadiazol-2-yl)-heptan-1-one]
			< 4.00					COC(=O)c1cccc(-c2nnc(C(=O)CCCCCCc3ccccc3)s2)n1 [12f, Methyl 6-(5-(7-Phenylheptanoyl)-1,3,4-thiadiazol-2-yl)-picolinate]
			< 4.00		< 4.00			O=C(O)c1cccc(-c2nnc(C(=O)CCCCCCc3ccccc3)s2)n1 [12g, 6-(5-(7-Phenylheptanoyl)-1,3,4-thiadiazol-2-yl)-picolinic Acid]
			< 4.00		4.96			COC(=O)c1nnc(C(=O)CCCCCCc2ccccc2)s1 [12h, Methyl 5-(7-Phenylheptanoyl)-1,3,4-thiadiazole-2-carboxylate]
			< 4.00		< 4.00			O=C(CCCCCCc1ccccc1)c1ccc(-c2ccccn2)nn1 [13b, 7-Phenyl-1-(6-(pyridin-2-yl)-pyridazin-3-yl)-heptan-1-one]
			< 4.00		< 4.00			O=C(O)c1cccc(-c2ccc(C(=O)CCCCCCc3ccccc3)nn2)n1 [13g, 6-(6-(7-Phenylheptanoyl)-pyridazin-3-yl)-picolinic Acid]
					6.22			O=C(CCCCCCc1ccccc1)c1ncc(-c2ccccn2)o1 [compound 2, reference compound]
